Source: PubChem BioAssay AID1963848 (Molecular Pharmacology Branch, DTP, NCI, 2024)

System: 379773-124-R-J2-PDC spheroid viability
Test: Anticancer human tumor 379773-124-R-J2-PDC patient-derived endometrial carcinoma cell line growth inhibition [POLQ]
Details: spheroids with HUVEC and MSC; for IC50: curve of first compound; for viability, T/C: stronger effect = lower value
In short: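 Complex spheroid viability model combining PDC tumour cells with endothelial (HUVEC) and MSC stromal cells. Novobiocin, ART-558 or RP6685 were tested singly and in combination with standard and investigational anticancer drugs. Each was titrated in half-log steps from near clinical Cmax, or from 10 microM where Cmax was unknown.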

[1] = second compound 0.0316 µM, first compound 0.0316 µM
[2] = second compound 0.0316 µM, first compound 0.1 µM
[3] = second compound 0.0316 µM, first compound 0.316 µM
[4] = second compound 0.0316 µM, first compound 1 µM
[5] = second compound 0.0316 µM, first compound 3.16 µM
[6] = second compound 0.0316 µM, first compound 10 µM
[7] = second compound 0.1 µM, first compound 0.0316 µM
[8] = second compound 0.1 µM, first compound 0.1 µM
[9] = second compound 0.1 µM, first compound 0.316 µM
[10] = second compound 0.1 µM, first compound 1 µM
[11] = second compound 0.1 µM, first compound 3.16 µM
[12] = second compound 0.1 µM, first compound 10 µM
[13] = second compound 0.316 µM, first compound 0.0316 µM
[14] = second compound 0.316 µM, first compound 0.1 µM
[15] = second compound 0.316 µM, first compound 0.316 µM
[16] = second compound 0.316 µM, first compound 1 µM
[17] = second compound 0.316 µM, first compound 3.16 µM
[18] = second compound 0.316 µM, first compound 10 µM
[19] = second compound 1 µM, first compound 0.0316 µM
[20] = second compound 1 µM, first compound 0.1 µM
[21] = second compound 1 µM, first compound 0.316 µM
[22] = second compound 1 µM, first compound 1 µM
[23] = second compound 1 µM, first compound 3.16 µM
[24] = second compound 1 µM, first compound 10 µM
[25] = second compound 3.16 µM, first compound 0.0316 µM
[26] = second compound 3.16 µM, first compound 0.1 µM
[27] = second compound 3.16 µM, first compound 0.316 µM
[28] = second compound 3.16 µM, first compound 1 µM
[29] = second compound 3.16 µM, first compound 3.16 µM
[30] = second compound 3.16 µM, first compound 10 µM
[31] = second compound 10 µM, first compound 0.0316 µM
[32] = second compound 10 µM, first compound 0.1 µM
[33] = second compound 10 µM, first compound 0.316 µM
[34] = second compound 10 µM, first compound 1 µM
[35] = second compound 10 µM, first compound 3.16 µM
[36] = second compound 10 µM, first compound 10 µM
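Also: spheroids exposed to drugs for seven days before readout.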
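For viability, T/C in this document: percent viability relative to DMSO vehicle control taken as 100%.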

**Q.** How did the IC50 (second compound 0.0316 µM) turn out when `CC1COCCN1c1cc(C2(O)CC3CCC(C2)O3)c2cnn(-c3ccn[nH]3)c2n1` (centres undefined) + Cc1cccc(N(C)C(=O)C2C(O)CCN2c2nc(C)cc(C(F)(F)F)c2C#N)c1 was run?
**A.** The IC50 was 0.0826 µM.

**Q.** And the IC50 (second compound 0.1 µM)?
**A.** Its IC50 is 0.0926 µM.

**Q.** What about the IC50 (second compound 0.316 µM) of the same compound?
**A.** The IC50 was 0.0827 µM.

**Q.** What about the IC50 (second compound 1 µM) of the same compound?
**A.** Its IC50 is 0.0961 µM.

**Q.** What about the IC50 (second compound 3.16 µM) of the same compound?
**A.** The IC50 was 0.0683 µM.

**Q.** And the IC50 (second compound 10 µM)?
**A.** The IC50 was 0.0681 µM.

**Q.** What about the viability, T/C [1] of the same compound?
**A.** The viability, T/C was 75.6%.

**Q.** And the viability, T/C [2]?
**A.** Its viability, T/C is 45.4%.

**Q.** What about the viability, T/C [3] of the same compound?
**A.** The viability, T/C was 14.1%.

**Q.** What about the viability, T/C [4] of the same compound?
**A.** The viability, T/C was 12.7%.

**Q.** What about the viability, T/C [5] of the same compound?
**A.** Its viability, T/C is 7.12%.

**Q.** What about the viability, T/C [6] of the same compound?
**A.** The viability, T/C was 2.45%.

**Q.** And the viability, T/C [7]?
**A.** Its viability, T/C is 82.8%.

**Q.** What about the viability, T/C [8] of the same compound?
**A.** Its viability, T/C is 48.1%.

**Q.** And the viability, T/C [9]?
**A.** The viability, T/C was 15.9%.

**Q.** And the viability, T/C [10]?
**A.** The viability, T/C was 11.5%.

**Q.** And the viability, T/C [11]?
**A.** Its viability, T/C is 7.15%.

**Q.** And the viability, T/C [12]?
**A.** The viability, T/C was 2.96%.

**Q.** And the viability, T/C [13]?
**A.** Its viability, T/C is 84.9%.

**Q.** What about the viability, T/C [14] of the same compound?
**A.** The viability, T/C was 43.2%.

**Q.** And the viability, T/C [15]?
**A.** The viability, T/C was 11.8%.

**Q.** What about the viability, T/C [16] of the same compound?
**A.** Its viability, T/C is 9.19%.

**Q.** And the viability, T/C [17]?
**A.** The viability, T/C was 6.89%.

**Q.** What about the viability, T/C [18] of the same compound?
**A.** The viability, T/C was 2.54%.

**Q.** What about the viability, T/C [19] of the same compound?
**A.** Its viability, T/C is 80.8%.

**Q.** And the viability, T/C [20]?
**A.** The viability, T/C was 49%.

**Q.** What about the viability, T/C [21] of the same compound?
**A.** Its viability, T/C is 12.2%.

**Q.** And the viability, T/C [22]?
**A.** The viability, T/C was 10.9%.

**Q.** What about the viability, T/C [23] of the same compound?
**A.** The viability, T/C was 7%.

**Q.** What about the viability, T/C [24] of the same compound?
**A.** Its viability, T/C is 2.13%.

**Q.** And the viability, T/C [25]?
**A.** The viability, T/C was 70.6%.

**Q.** And the viability, T/C [26]?
**A.** Its viability, T/C is 40.2%.

**Q.** What about the viability, T/C [27] of the same compound?
**A.** Its viability, T/C is 15.1%.

**Q.** What about the viability, T/C [28] of the same compound?
**A.** The viability, T/C was 9.34%.

**Q.** And the viability, T/C [29]?
**A.** The viability, T/C was 7.31%.

**Q.** And the viability, T/C [30]?
**A.** Its viability, T/C is 2.13%.

**Q.** What about the viability, T/C [31] of the same compound?
**A.** The viability, T/C was 68.3%.

**Q.** What about the viability, T/C [32] of the same compound?
**A.** Its viability, T/C is 41.5%.

**Q.** What about the viability, T/C [33] of the same compound?
**A.** The viability, T/C was 15.1%.

**Q.** And the viability, T/C [34]?
**A.** The viability, T/C was 10.8%.

**Q.** What about the viability, T/C [35] of the same compound?
**A.** Its viability, T/C is 7.1%.

**Q.** And the viability, T/C [36]?
**A.** Its viability, T/C is 1.64%.

**Q.** How did the IC50 (second compound 0.0316 µM) turn out when `CC(C)n1c(=O)n(C)c2cnc3cc(F)c(-c4ccc(OCCCN5CCCCC5)nc4)cc3c21` + Nc1ccc(C#CCN(C(=O)Cc2ncc(C(F)(F)F)cc2C(F)(F)F)c2ccc(F)cc2)nn1 was run?
**A.** The IC50 was over 10 µM.

**Q.** What about the IC50 (second compound 0.1 µM) of the same compound?
**A.** Its IC50 is over 10 µM.

**Q.** And the IC50 (second compound 0.316 µM)?
**A.** Its IC50 is over 10 µM.

**Q.** What about the IC50 (second compound 1 µM) of the same compound?
**A.** Its IC50 is over 10 µM.

**Q.** What about the IC50 (second compound 3.16 µM) of the same compound?
**A.** The IC50 was over 10 µM.

**Q.** What about the IC50 (second compound 10 µM) of the same compound?
**A.** Its IC50 is over 10 µM.

**Q.** What about the viability, T/C [1] of the same compound?
**A.** The viability, T/C was 95.4%.

**Q.** What about the viability, T/C [2] of the same compound?
**A.** Its viability, T/C is 96.4%.

**Q.** And the viability, T/C [3]?
**A.** The viability, T/C was 83.3%.

**Q.** What about the viability, T/C [4] of the same compound?
**A.** Its viability, T/C is 94.3%.

**Q.** What about the viability, T/C [5] of the same compound?
**A.** The viability, T/C was 81.7%.

**Q.** What about the viability, T/C [6] of the same compound?
**A.** Its viability, T/C is 72.6%.

**Q.** And the viability, T/C [7]?
**A.** The viability, T/C was 97.9%.

**Q.** What about the viability, T/C [8] of the same compound?
**A.** The viability, T/C was 92.6%.

**Q.** What about the viability, T/C [9] of the same compound?
**A.** The viability, T/C was 85.3%.

**Q.** What about the viability, T/C [10] of the same compound?
**A.** The viability, T/C was 87.6%.

**Q.** What about the viability, T/C [11] of the same compound?
**A.** Its viability, T/C is 78.9%.

**Q.** What about the viability, T/C [12] of the same compound?
**A.** The viability, T/C was 73.6%.

**Q.** What about the viability, T/C [13] of the same compound?
**A.** The viability, T/C was 90.4%.

**Q.** And the viability, T/C [14]?
**A.** The viability, T/C was 96.7%.

**Q.** And the viability, T/C [15]?
**A.** The viability, T/C was 84.7%.

**Q.** And the viability, T/C [16]?
**A.** The viability, T/C was 88.8%.

**Q.** And the viability, T/C [17]?
**A.** The viability, T/C was 81.4%.

**Q.** What about the viability, T/C [18] of the same compound?
**A.** Its viability, T/C is 74.9%.

**Q.** What about the viability, T/C [19] of the same compound?
**A.** The viability, T/C was 98.5%.

**Q.** And the viability, T/C [20]?
**A.** The viability, T/C was 98.2%.

**Q.** And the viability, T/C [21]?
**A.** Its viability, T/C is 87%.

**Q.** What about the viability, T/C [22] of the same compound?
**A.** The viability, T/C was 94.5%.

**Q.** And the viability, T/C [23]?
**A.** The viability, T/C was 84.7%.

**Q.** What about the viability, T/C [24] of the same compound?
**A.** Its viability, T/C is 77.8%.

**Q.** And the viability, T/C [25]?
**A.** Its viability, T/C is 92.6%.

**Q.** What about the viability, T/C [26] of the same compound?
**A.** The viability, T/C was 87.5%.

**Q.** And the viability, T/C [27]?
**A.** The viability, T/C was 82.1%.

**Q.** What about the viability, T/C [28] of the same compound?
**A.** Its viability, T/C is 80.7%.

**Q.** And the viability, T/C [29]?
**A.** The viability, T/C was 85.9%.

**Q.** What about the viability, T/C [30] of the same compound?
**A.** The viability, T/C was 85.3%.

**Q.** And the viability, T/C [31]?
**A.** The viability, T/C was 85.5%.

**Q.** And the viability, T/C [32]?
**A.** The viability, T/C was 89.7%.

**Q.** And the viability, T/C [33]?
**A.** The viability, T/C was 77%.

**Q.** And the viability, T/C [34]?
**A.** Its viability, T/C is 77.8%.

**Q.** What about the viability, T/C [35] of the same compound?
**A.** Its viability, T/C is 75.2%.

**Q.** And the viability, T/C [36]?
**A.** The viability, T/C was 73.8%.
